Test results from patent US11547681B2, “N-acylethanolamide derivatives and uses thereof” (ELIEM THERAPEUTICS, INC., priority 2016, dated 2023).

Assay: in vitro
Settings: for Concentration (μM) of analyte PEA, 0 min / Concentration (μM) of analyte PEA, 10 min / Concentration (μM) of analyte PEA, 20 min / Concentration (μM) of analyte PEA, 30 min / Concentration (μM) of analyte PEA, 60 min / % Remaining of Initial (n = 1), 0 min / % Remaining of Initial (n = 1), 10 min / % Remaining of Initial (n = 1), 20 min / % Remaining of Initial (n = 1), 30 min / % Remaining of Initial (n = 1), 60 min: 1 μM; for % Remaining of Initial (n = 1), 0 min: s9, 0 h; for % Remaining of Initial (n = 1), 10 min: s9, 10 min; for % Remaining of Initial (n = 1), 20 min: s9, 20 min; for % Remaining of Initial (n = 1), 30 min: s9, 0.5 h; for % Remaining of Initial (n = 1), 60 min: s9, 1 h; for half-life at 1 μM: s9, Half-life (min)
Method: Reaction mixture, minus cofactors, was prepared as described below. Test article was added into the reaction mixture at a final concentration of 1 μM. […] An aliquot of the reaction mixture (without cofactor cocktail) was equilibrated in a shaking water bath at 37° C. for 3 minutes. The reaction was initiated by the addition of cofactor cocktail (see below), and the mixture was then incubated in a shaking water bath at 37° C. Aliquots (100 μL) were withdrawn 0, 10, 20, 30 and 60 minutes. Test article samples were immediately combined with 300 μL of ice-cold acetonitrile containing 1% formic acid. Control samples were immediately combined with 400 μL of ice-cold 50/50 acetonitrile (ACN)/dH2O containing 0.1% formic acid and internal standard to terminate the reaction. Samples were then mixed and centrifuged to precipitate proteins. Calibration standards were prepared in matched matrix. Samples and standards were assayed by LC-MS/MS using electrospray ionization for both the dosed prodrug and the expected drug (PEA). Analytical conditions are outlined in Appendix 8-1. Test article concentration at each time point was compared to the test article concentration at time 0 to determine the percent remaining at each time point. Half-lives were calculated using GraphPad software, fitting to a single-phase exponential decay equation.
Reaction mixture, minus cofactors, was prepared as described below. Test article was added into the reaction mixture at a final concentration of 1 μM. […] An aliquot of the reaction mixture (without cofactor cocktail) was equilibrated in a shaking water bath at 37° C. for 5 minutes. Reaction was initiated by the addition of cofactor cocktail (see below), and mixture was then incubated in a shaking water bath at 37° C. Aliquots (100 μL) were withdrawn at 0, 10, 20, 30, and 60 minutes. Test article samples were immediately combined with 300 μL of ice-cold acetonitrile containing 1% formic acid. Control samples were immediately combined with 400 μL of ice-cold 50/50 acetonitrile (ACN)/dH2O containing 0.1% formic acid and internal standard to terminate the reaction. Samples were then mixed and centrifuged to precipitate proteins. Calibration standards were prepared in matched matrix. Samples and standards were assayed by LC-MS/MS using electrospray ionization for both dosed prodrug and expected drug (PEA). Analytical conditions are outlined in Appendix 10-1. Test article concentration at each time point was compared to test article concentration at time 0 to determine the percent remaining at each time point. Half-lives were calculated using GraphPad software, fitting to a single-phase exponential decay equation.
The reaction mixture, minus cofactors, was prepared as described below. Test article was added into the reaction mixture at a final concentration of 1 μM. […] An aliquot of the reaction mixture (without cofactor cocktail) was equilibrated in a shaking water bath at 37° C. for 3 minutes. Reaction was initiated by the addition of cofactor cocktail (see below), and the mixture was then incubated in a shaking water bath at 37° C. Aliquots (100 μL) were withdrawn at 0, 10, 20, 30, and 60 minutes. Test article samples were immediately combined with 300 μL of ice-cold acetonitrile containing 1% formic acid. Control samples were immediately combined with 400 μL of ice-cold 50/50 acetonitrile (ACN)/dH2O containing 0.1% formic acid and internal standard to terminate the reaction. Samples were then mixed and centrifuged to precipitate proteins. Calibration standards were prepared in matched matrix. Samples and standards were assayed by LC-MS/MS using electrospray ionization for both dosed prodrug and expected drug (PEA). Analytical conditions are outlined in Appendix 13-1. Test article concentration at each time point was compared to the test article concentration at time 0 to determine the percent remaining at each time point.

CCCCCCCCCCCCCCCC(=O)NCCOC(=O)CCC [Compound I-2]
Concentration (μM) of analyte PEA, 0 min (both, human): 0.20 µM
Concentration (μM) of analyte PEA, 10 min (both, human): 0.23 µM
Concentration (μM) of analyte PEA, 20 min (both, human): 0.18 µM
Concentration (μM) of analyte PEA, 30 min (both, human): 0.096 µM
Concentration (μM) of analyte PEA, 60 min (both, human): 0.033 µM
% Remaining of Initial (n = 1), 0 min (both, human): 100%
% Remaining of Initial (n = 1), 10 min (both, human): 6.0%
% Remaining of Initial (n = 1), 20 min (both, human): 1.3%
% Remaining of Initial (n = 1), 30 min (both, human): <1.0%
% Remaining of Initial (n = 1), 60 min (both, human): <1.0%
Concentration (μM) of analyte PEA, 0 min (male, Beagle, dog): 0.23 µM
Concentration (μM) of analyte PEA, 10 min (male, Beagle, dog): 0.38 µM
Concentration (μM) of analyte PEA, 20 min (male, Beagle, dog): 0.35 µM
Concentration (μM) of analyte PEA, 30 min (male, Beagle, dog): 0.21 µM
Concentration (μM) of analyte PEA, 60 min (male, Beagle, dog): 0.11 µM
% Remaining of Initial (n = 1), 0 min (male, Beagle, dog): 100%
% Remaining of Initial (n = 1), 10 min (male, Beagle, dog): 5.1%
% Remaining of Initial (n = 1), 20 min (male, Beagle, dog): 2.0%
% Remaining of Initial (n = 1), 30 min (male, Beagle, dog): <1.0%
% Remaining of Initial (n = 1), 60 min (male, Beagle, dog): <1.0%
Concentration (μM) of analyte PEA, 0 min (male, CD-1, mouse): 0.51 µM
Concentration (μM) of analyte PEA, 10 min (male, CD-1, mouse): 0.26 µM
Concentration (μM) of analyte PEA, 20 min (male, CD-1, mouse): 0.19 µM
Concentration (μM) of analyte PEA, 30 min (male, CD-1, mouse): 0.12 µM
Concentration (μM) of analyte PEA, 60 min (male, CD-1, mouse): 0.022 µM
% Remaining of Initial (n = 1), 0 min (male, CD-1, mouse): 100%
% Remaining of Initial (n = 1), 10 min (male, CD-1, mouse): <1.0%
% Remaining of Initial (n = 1), 20 min (male, CD-1, mouse): <1.0%
% Remaining of Initial (n = 1), 30 min (male, CD-1, mouse): <1.0%
% Remaining of Initial (n = 1), 60 min (male, CD-1, mouse): <1.0%
half-life at 1 μM (male, CD-1, mouse): < 0.0167 h
Concentration (μM) of analyte PEA, 0 min (male, Sprague-Dawley, rat): 0.50 µM
Concentration (μM) of analyte PEA, 10 min (male, Sprague-Dawley, rat): 0.31 µM
Concentration (μM) of analyte PEA, 20 min (male, Sprague-Dawley, rat): 0.17 µM
Concentration (μM) of analyte PEA, 30 min (male, Sprague-Dawley, rat): 0.11 µM
Concentration (μM) of analyte PEA, 60 min (male, Sprague-Dawley, rat): 0.023 µM
% Remaining of Initial (n = 1), 0 min (male, Sprague-Dawley, rat): 100%
% Remaining of Initial (n = 1), 10 min (male, Sprague-Dawley, rat): <1.0%
% Remaining of Initial (n = 1), 20 min (male, Sprague-Dawley, rat): <1.0%
% Remaining of Initial (n = 1), 30 min (male, Sprague-Dawley, rat): <1.0%
% Remaining of Initial (n = 1), 60 min (male, Sprague-Dawley, rat): <1.0%
half-life at 1 μM (male, Sprague-Dawley, rat): < 0.0167 h

CCCCCCCCCCCCCCCC(=O)NCCOC(=O)CCC(=O)OCC(COC(=O)CCCCCCC)OC(=O)CCCCCCC (stereo not shown) [Compound I-3, PEA-Succinate-Glycerol-Di-Caprylic]
Concentration (μM) of analyte PEA, 0 min (both, human): 0.00032 µM
Concentration (μM) of analyte PEA, 10 min (both, human): 0.0058 µM
Concentration (μM) of analyte PEA, 20 min (both, human): 0.017 µM
Concentration (μM) of analyte PEA, 30 min (both, human): 0.015 µM
Concentration (μM) of analyte PEA, 60 min (both, human): 0.0096 µM
% Remaining of Initial (n = 1), 0 min (both, human): 100%
% Remaining of Initial (n = 1), 10 min (both, human): 104%
% Remaining of Initial (n = 1), 20 min (both, human): 89%
% Remaining of Initial (n = 1), 30 min (both, human): 95%
% Remaining of Initial (n = 1), 60 min (both, human): 66%
half-life at 1 μM (both, human): > 1 h
Concentration (μM) of analyte PEA, 0 min (male, Beagle, dog): 0.010 µM
Concentration (μM) of analyte PEA, 10 min (male, Beagle, dog): 0.030 µM
Concentration (μM) of analyte PEA, 20 min (male, Beagle, dog): 0.035 µM
Concentration (μM) of analyte PEA, 30 min (male, Beagle, dog): 0.031 µM
Concentration (μM) of analyte PEA, 60 min (male, Beagle, dog): 0.029 µM
% Remaining of Initial (n = 1), 0 min (male, Beagle, dog): 100%
% Remaining of Initial (n = 1), 10 min (male, Beagle, dog): 104%
% Remaining of Initial (n = 1), 20 min (male, Beagle, dog): 89%
% Remaining of Initial (n = 1), 30 min (male, Beagle, dog): 80%
% Remaining of Initial (n = 1), 60 min (male, Beagle, dog): 86%
half-life at 1 μM (male, Beagle, dog): > 1 h
Concentration (μM) of analyte PEA, 0 min (male, CD-1, mouse): 0.013 µM
Concentration (μM) of analyte PEA, 10 min (male, CD-1, mouse): 0.031 µM
Concentration (μM) of analyte PEA, 20 min (male, CD-1, mouse): 0.022 µM
Concentration (μM) of analyte PEA, 30 min (male, CD-1, mouse): 0.023 µM
Concentration (μM) of analyte PEA, 60 min (male, CD-1, mouse): 0.025 µM
% Remaining of Initial (n = 1), 0 min (male, CD-1, mouse): 100%
% Remaining of Initial (n = 1), 10 min (male, CD-1, mouse): 82%
% Remaining of Initial (n = 1), 20 min (male, CD-1, mouse): 61%
% Remaining of Initial (n = 1), 30 min (male, CD-1, mouse): 78%
% Remaining of Initial (n = 1), 60 min (male, CD-1, mouse): 61%
half-life at 1 μM (male, CD-1, mouse): > 1 h
half-life at 1 μM (male, CD-1, mouse, calculated half-life in parentheses): 1.45 h
Concentration (μM) of analyte PEA, 0 min (male, Sprague-Dawley, rat): 0.015 µM
Concentration (μM) of analyte PEA, 10 min (male, Sprague-Dawley, rat): 0.045 µM
Concentration (μM) of analyte PEA, 20 min (male, Sprague-Dawley, rat): 0.033 µM
Concentration (μM) of analyte PEA, 30 min (male, Sprague-Dawley, rat): 0.017 µM
Concentration (μM) of analyte PEA, 60 min (male, Sprague-Dawley, rat): 0.013 µM
% Remaining of Initial (n = 1), 0 min (male, Sprague-Dawley, rat): 100%
% Remaining of Initial (n = 1), 10 min (male, Sprague-Dawley, rat): 66%
% Remaining of Initial (n = 1), 20 min (male, Sprague-Dawley, rat): 69%
% Remaining of Initial (n = 1), 30 min (male, Sprague-Dawley, rat): 71%
% Remaining of Initial (n = 1), 60 min (male, Sprague-Dawley, rat): 52%
half-life at 1 μM (male, Sprague-Dawley, rat): > 1 h
half-life at 1 μM (male, Sprague-Dawley, rat, calculated half-life in parentheses): 1.2 h
